Data taken from the NIST ThermoML archive (doi:10.1016/j.jct.2013.08.033).

Legend:
[1] = xn = mol fraction of the nth substance listed; settings: 101 kPa, Liquid; for mass density: Pycnometric method; for speed of sound: Pulse-echo method
[2] = molar heat capacity at constant pressure; settings: 101.33 kPa, Liquid, Small sample (50 mg) DSC
[3] = refractive index (Na D-line) (dimensionless); settings: 298.15 K; 101.33 kPa; Liquid; Standard Abbe refractometry
[4] = 101 kPa, Liquid; for mass density: Pycnometric method; for speed of sound: Pulse-echo method

CCCCO [butan-1-ol] + CCC(O)CO
[1], x2 = 0
Settings	mass density [kg/m3]	speed of sound [m/s]
293.15 K	809.65	–
298.15 K	805.81	1240.2
303.15 K	801.98	–
308.15 K	798.13	–

CCCCO [butan-1-ol]
Settings	mass density, [4] [kg/m3]	molar heat capacity at constant pressure, [2] [J/K/mol]	speed of sound, [4] [m/s]
283.15 K	–	167.32	–
288.15 K	–	170.35	–
293.15 K	809.65	173.54	–
298.15 K	805.81	176.9	1240.2
303.15 K	801.98	180.41	–
308.15 K	798.13	184.09	–
313.15 K	–	187.93	–
318.15 K	–	191.93	–

Settings	refractive index
[3]	1.3972

CCC(O)CO (stereo not drawn) [1,2-butanediol] + CCCCO
[1]
Settings	mass density, 293.15 K [kg/m3]	mass density, 298.15 K [kg/m3]	mass density, 303.15 K [kg/m3]	mass density, 308.15 K [kg/m3]	speed of sound, 298.15 K [m/s]
x1 = 0.05027	819.25	815.37	811.5	807.63	1248.1
x1 = 0.1001	828.73	824.84	820.98	817.06	1256.3
x1 = 0.1501	838.28	834.4	830.49	826.61	1264.1
x1 = 0.3	867.03	863.1	859.21	855.24	1289.6
x1 = 0.4004	886.32	882.4	878.47	874.54	1307.8
x1 = 0.4994	905.4	901.47	897.58	893.65	1327.2
x1 = 0.6002	924.85	920.95	917.07	913.17	1348.3
x1 = 0.7001	944.16	940.28	936.42	932.51	1371.1
x1 = 0.85	973.21	969.42	965.57	961.69	1408.2
x1 = 0.8998	982.93	979.12	975.25	971.41	1421.8
x1 = 0.9498	992.62	988.87	985.02	981.19	1435.5
x1 = 1	1002.32	998.59	994.78	990.97	1449.9

CCC(O)CO (stereo not drawn) [1,2-butanediol]
Settings	mass density, [4] [kg/m3]	molar heat capacity at constant pressure, [2] [J/K/mol]	speed of sound, [4] [m/s]
283.15 K	–	222.86	–
288.15 K	–	225.62	–
293.15 K	1002.32	228.35	–
298.15 K	998.59	231.06	1449.9
303.15 K	994.78	233.74	–
308.15 K	990.97	236.4	–
313.15 K	–	239.05	–
318.15 K	–	241.66	–

Settings	refractive index
[3]	1.4364
